These results are taken from patent US9533026B2, “Polypeptide compounds for inhibiting angiogenesis and tumor growth” (VasGene Therapeutics, Inc., priority 2004, dated 2017).

In one test the test system is EphB4. In words: EGF regulation of EphB4 in SCC15 cells with kinase inhibitors (Western blot). The format is cell-based, human. As to conditions: for EGF stimulated induction of EphB4: serum-starved SCC15, 10 ng/ml EGF, 24 h; for basal levels of EphB4: serum-starved SCC15, 24 h. The protocol: B) SCC15 cells were serum-starved for 24 h prior to an additional 24 incubation as indicated with or without EGF (10 ng/ml), 3 μM U73122, or 5 μM SH-5, 5 μM SP600125, […] LY294002, - - μM PD098095 or 5 μM SB203580. N/A indicates cultures that received equal volume of diluent (DMSO) only. Cell lysates were subjected to Western Blot with EphB4 monoclonal antibody. β-actin signal serves as control of protein loading and transfer.
On the technique in general: In western blotting, separated proteins are transferred to a membrane and probed.

The subject of another test is human endothelial cells. The experiment in a line: Endothelial cell chemotaxis / migration (Boyden chamber). The test is classed as cell-based. As to conditions: umbilical cord and hepatic AECs or VECs; growth factor stimuli. How it is done: Migration is assessed using the 48-well Boyden chamber and 8 μm pore size collagen-coated (10 μg/ml rat tail collagen; Collaborative Laboratories) polycarbonate filters (Osmonics, Inc.). The bottom chamber wells receive 27-29 μl of DMEM medium alone (baseline) or medium containing chemo-attractant (bFGF, VEGF or Swiss 3T3 cell conditioned medium). The top chambers receive 45 μl of HUVEC cell suspension (1×10^6 cells/ml) prepared in DMEM+1% BSA with or without test compound. After 5 h incubation at 37° C., the membrane is rinsed in PBS, fixed and stained in Diff-Quick solutions. The filter is placed on a glass slide with the migrated cells facing down and cells on top are removed using a Kimwipe. The testing is performed in 4-6 replicates and five fields are counted from each well. Negative unstimulated control values are subtracted from stimulated control and drug treated values and data is plotted as mean migrated cell±S.D. IC50 is calculated from the plotted data.
Chemotaxis of HUVECs to VEGF was assessed using a modified Boyden chamber, transwell membrane filter inserts in 24 well plates, 6.5 mm diam, 8 μm pore size, 10 μm thick matrigel coated, polycarbonate membranes (BD Biosciences). The cell suspensions of HUVECs (2×10^5 cells/ml) in 200 μl of EBM were seeded in the upper chamber and the soluble EphB4 protein were added simultaneously with stimulant (VEGF or bFGF) to the lower compartment of the chamber and their migration across a polycarbonate filter in response to 10-20 ng/ml of VEGF with or without 100 nM-1 μM test compound was investigated. After incubation for 4-24 h at 37° C., the upper surface of the filter was scraped with swab and filters were fixed and stained with Diff Quick. Ten random fields at 200× mag were counted and the results expressed as mean # per field. Negative unstimulated control values were subtracted from stimulated control and protein treated sample values and the data was plotted as mean migrated cell±S.D. IC50 was calculated from the plotted data.

In the next test the test system is HUVEC. The experiment in a line: Endothelial cell tube (cord) formation on Matrigel. The test is classed as cell-based, human. The protocol: Cord formation assay of HUVEC in Matrigel™ (upper row). Cells in exponential growth phase were treated overnight with the indicated concentrations of EphB4 extracellular domain (ECD) prior to plating on Matrigel™. Cells were trypsinized and plated (1×10^5 cells/well) in a 24-well plate containing 0.5 ml Matrigel™. Shown are representative 20× phase contrast fields of cord formation after 8 hr plating on Matrigel™ in the continued presence of the test compounds as shown. Original magnification 200×. KS-SLK cells treated in a similar manner (middle row) in a cord formation assay on Matrigel™. […] After 7 days the plugs were removed, sectioned and stained with H&E to visualize cells migrating into the matrix.
Matrigel (60 μl of 10 mg/ml; Collaborative Lab #35423) is placed in each well of an ice-cold 96-well plate. The plate is allowed to sit at room temperature for 15 minutes then incubated at 37° C. for 30 minutes to permit the matrigel to polymerize. In the mean time, HUVECs are prepared in EGM-2 (Clonetic #CC3162) at a concentration of 2×10^5 cells/ml. The test compound is prepared at 2× the desired concentration (5 concentration levels) in the same medium. Cells (500 μl) and 2× drug (500 μl) is mixed and 200 μl of this suspension are placed in duplicate on the polymerized matrigel. After 24 h incubation, triplicate pictures are taken for each concentration using a Bioquant Image Analysis system. Drug effect (IC50) is assessed compared to untreated controls by measuring the length of cords formed and number of junctions.
Matrigel (60 μl of 10 mg/ml; Collaborative Lab, Cat. No. 35423) was placed in each well of an ice-cold 96-well plate. The plate was allowed to sit at room temperature for 15 minutes then incubated at 37° C. for 30 minutes to permit Matrigel to polymerize. In the mean time, human umbilical vein endothelial cells were prepared in EGM-2 (Clonetic, Cat. No. CC3162) at a concentration of 2×10^5 cells/ml. The test protein was prepared at 2× the desired concentration (5 concentration levels) in the same medium. Cells (500 μl) and 2× protein (500 μl) were mixed and 200 μl of this suspension were placed in duplicate on the polymerized Matrigel. After 24 h incubation, triplicate pictures were taken for each concentration using a Bioquant Image Analysis system. Protein addition effect (IC50) was assessed compared to untreated controls by measuring the length of cords formed and number of junctions.

The target of the next test is T1, EphrinB2 (Homo sapiens, UniProt P52799).
T1 construct: protein fusion of Ephrin B2 ectodomain with placental alkaline phosphatase
T1 sequence (P52799 28-229 limits assumed): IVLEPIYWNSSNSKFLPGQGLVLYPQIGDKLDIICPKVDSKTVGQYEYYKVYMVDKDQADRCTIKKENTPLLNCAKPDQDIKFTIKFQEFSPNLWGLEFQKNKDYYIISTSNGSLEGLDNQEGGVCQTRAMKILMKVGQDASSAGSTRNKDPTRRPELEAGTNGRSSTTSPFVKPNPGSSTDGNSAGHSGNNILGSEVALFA
In words: Ephrin B2-AP binding to immobilized EphB4EC proteins. As to conditions: B4 proteins immobilized on Ni2+-resin or nitrocellulose. The protocol: 10 μl of Ni-NTA-Agarose were incubated in microcentrifuge tubes with 50 μl of indicated amount of B4ECv3 diluted in binding buffer BB (20 mM Tris-HCl, 0.15 M NaCl, 0.1% bovine serum albumin pH 8) After incubation for 30 min on shaking platform, Ni-NTA beads were washed twice with 1.4 ml of BB, followed by application of 50 μl of B2-AP in the final concentration of 50 nM. Binding was performed for 30 min on shaking platform, and then tubes were centrifuged and washed one time with 1.4 ml of BB. Amount of precipitated AP was measured colorimetrically after application of PNPP.
To confirm ability of the purified recombinant proteins to bind Ephrin B2, they were tested in an in vitro binding assay. As expected, GC, GCF1 and GCF2, but not CF2 are binding the cognate ligand Ephrin B2 as confirmed by interaction between Ephrin B2-alkaline phosphatase (Ephrin B2-AP) fusion protein with the B4 proteins immobilized on Ni^2+-resin or on nitrocellulose membrane (FIG. 17).

The next test relates to EphB4 receptor. The experiment in a line: Cell-based EphB4 tyrosine kinase assay in PC3 cells. On the set-up: species or system human. Conditions: Ephrin B2-Fc ligand preincubated with protein. How it is done: All four proteins were also tested for their ability to block ligand-dependent dimerization and activation of Eph B4 receptor kinase in PC3 cells. The PC3 human prostate cancer cell line is known to express elevated levels of human Eph B4. Stimulation of PC3 cells with Ephrin B2 IgG Fc fusion protein leads to a rapid induction of tyrosine phosphorylation of the receptor. However, preincubation of the ligand with GCF2, GCF1 or GC, but not CF2 proteins suppresses subsequent EphB4 autophosphorylation.
The human prostate carcinoma cell line PC3 cells were maintained in RPMI medium with 10% dialyzed fetal calf serum and 1% penicillin/streptomycin/neomycin antibiotics mix. Cells were maintained at 37° C. in a humidified atmosphere of 5% CO2/95% air. Typically, cells were grown in 60 mm dishes until confluency and were either treated with mouse Ephrin B2-Fc fusion at 1 μg/ml in RPMI for 10 min to activate EphB4 receptor or plain medium as a control. To study the effect of different derivatives of soluble EphB4 ECD proteins on EphB4 receptor activation, three sets of cells were used. In the first set, cells were treated with various proteins (5 proteins; GC, GCF1, GCF2, GCF2-F, CF2) at 5 μg/ml for 20 min. In the second set of cells, prior to application, proteins were premixed with ephrinB2-Fc at 1:5 (EphB4 protein:B2-Fc) molar ratio, incubated for 20 min and applied on cells for 10 min. In the third set of cells, cells were first treated with the proteins for 20 min at 5 μg/ml, media was replaced with fresh media containing 1 μg/ml of EphrinB2-Fc and incubated for another 10 min.
After the stimulation, cells were immediately harvested with protein extraction buffer containing 20 mM Tris-HCl, pH 7.4, 150 mM NaCl, 1% (v/v) Triton X100, 1 mM EDTA, 1 mM PMSF, 1 mM Sodium vanadate. Protein extracts were clarified by centrifugation at 14,000 rpm for 20 min at 4° C. Clarified protein samples were incubated overnight with protein A/G coupled agarose beads pre-coated with anti-EphB4 monoclonal antibodies. The IP complexes were washed twice with the same extraction buffer containing 0.1% Triton X100. The immunoprecipitated proteins were solubilized in 1×SDS-PAGE sample loading buffer and separated on 10% SDS-PAGE. For EphB4 receptor activation studies, electroblotted membrane was probed with anti-pTyr specific antibody 4G10 at 1:1000 dilution followed by Protein G-HRP conjugate at 1:5000 dilutions.

On to `COc1cccc(-c2cc(=O)c3ccccc3o2)c1N` [PD098095], for which, in the test on EphB4, the “EGF stimulated induction of EphB4” value is given as “no discernible effect” and the “basal levels of EphB4” value is recorded as “reduced”.

As to `C[S+]([O-])c1ccc(-c2nc(-c3ccncc3)c(-c3ccc(F)cc3)[nH]2)cc1` (centres unmarked) [SB203580], the “basal levels of EphB4” value in the test on EphB4 is on record as “increased”.

Consider `CCCCCCCCCCCCCCCCCCOC[C@H](COP(=O)(O)O[C@H]1[C@H](O)[C@@H](O)[C@H](O)C[C@H]1OC)OC` [SH-5], for which, in the test on EphB4, the “EGF stimulated induction of EphB4” value is “blocked” and the “basal levels of EphB4” value was “reduced”.

Consider `COc1ccc2c(c1)CC[C@@H]1[C@@H]2CC[C@]2(C)[C@@H](NCCCCCCN3C(=O)C=CC3=O)CC[C@@H]12` [U73122], for which, in the test with EphB4, the “EGF stimulated induction of EphB4” value is recorded as “blocked” and the “basal levels of EphB4” value is “reduced”.

Take “B2EC-FC: Ephrin B2 extracellular domain fused to human IgG1 Fc fragment, SEQ ID NO:5”: the “chemotaxis of human endothelial cells” value with human endothelial cells was “blocked chemotaxis”. Moreover, the “endothelial cell tube / tubule / cord formation” value with HUVEC is “inhibition”.

B1: GC: EphB4EC deletion variant, globular domain and Cys-rich domain, 6xHis tagged, SEQ ID NO:12 (protein)
chain: MELRVLLCWASLAAALEETLLNTKLETADLKWVTFPQVDGQWEELSGLDEEQHSVRTYEVCEVQRAPGQAHWLRTGWVPRRGAVHVYATLRFTMLECLSLPRAGRSCKETFTVFYYESDADTATALTPAWMENPYIKVDTVAAEHLTRKRPGAEATGKVNVKTLRLGPLSKAGFYLAFQDQGACMALLSLHLFYKKCAQLTVNLTRFPETVPRELVVPVAGSCVVDAVPAPGPSPSLYCREDGQWAEQPVTGCSCAPGFEAAEGNTKCRACAQGTFKPLSGEGSCQPCPANSHSNTIGSAVCQCRVGYFRARTDPRGAPCTTPPSAHHHHHH
modifications: Recombinant B4EC-GC
For B1, the “binding the cognate ligand Ephrin B2” value in the test with EphrinB2 is “binding”. Besides, in the test on EphB4 receptor, the EphB4 autophosphorylation result is on record as “suppresses”.

B2: B2EC: soluble extracellular domain of human Ephrin B2, SEQ ID NO:3 (protein)
chain: MAVRRDSVWKYCWGVLMVLCRTAISKSIVLEPIYWNSSNSKFLPGQGLVLYPQIGDKLDIICPKVDSKTVGQYEYYKVYMVDKDQADRCTIKKENTPLLNCAKPDQDIKFTIKFQEFSPNLWGLEFQKNKDYYIISTSNGSLEGLDNQEGGVCQTRAMKILMKVGQDASSAGSTRNKDPTRRPELEAGTNGRSSTTSPFVKPNPGSSTDGNSAGHSGNNILGSEVGSHHHHHH
modifications: Recombinant B2EC protein
In the case of B2, the “chemotaxis of human endothelial cells” value in the test with human endothelial cells is reported as “blocked chemotaxis”.

B3: GCF1: EphB4EC variant, globular, Cys-rich and the first FNIII domain, 6xHis tagged, SEQ ID NO:13 (protein)
chain: MELRVLLCWASLAAALEETLLNTKLETADLKWVTFPQVDGQWEELSGLDEEQHSVRTYEVCEVQRAPGQAHWLRTGWVPRRGAVHVYATLRFTMLECLSLPRAGRSCKETFTVFYYESDADTATALTPAWMENPYIKVDTVAAEHLTRKRPGAEATGKVNVKTLRLGPLSKAGFYLAFQDQGACMALLSLHLFYKKCAQLTVNLTRFPETVPRELVVPVAGSCVVDAVPAPGPSPSLYCREDGQWAEQPVTGCSCAPGFAEGNTKCRACAQGTFKPLSGEGSCQPCPANSHSNTIGSAVCQCRVGYFRARTDPRGAPCTTPPSAPRSVVSRLNGSSLHLEWSAPLESGGREDLTYALRCRECRPGGSCAPCGGDLTFDPGPRDLVEPWVVVRGLRPDFTYTFEVTALNGVSSLATGPVPFEPVNVHHHHHH
modifications: Recombinant GCF
Turning to B3, the “binding the cognate ligand Ephrin B2” value with EphrinB2 is “binding”. Besides, the EphB4 autophosphorylation entry in the test on EphB4 receptor is recorded as “suppresses”.
